Assay results taken from patent US7015306B2 (BioSynthema, Inc., priority 1999, dated 2006).
Where a SMILES comes first, the peptide text is derived from it. [ ]: non-standard residue; d: D form. The star is where a group is joined. ξ: configuration not given here. DTPA = O=C(O)CN(CCN(CC(=O)O)CC(=O)O)CCN(CC(=O)O)CC(=O)*; ξGly(4-Pip(1-amidino)) = N=C(N)N1CCC(C(N)C(=O)O)CC1; ξPhe(4-guanidino) = N=C(N)Nc1ccc(CC(N)C(=O)O)cc1; Dmt = Cc1cc(O)cc(C)c1C[C@H](N)C(=O)O; Pro(4-oxo) = O=C1CN[C@H](C(=O)O)C1; Ala(cPr) = N[C@@H](CC1CC1)C(=O)O; tBuAla = CC(C)(C)C[C@H](N)C(=O)O; Cha = N[C@@H](CC1CCCCC1)C(=O)O; Tle = CC(C)(C)[C@H](N)C(=O)O; Pip = O=C(O)[C@@H]1CCCCN1; dPip = O=C(O)[C@H]1CCCCN1; Ac6c = NC1(C(=O)O)CCCCC1; Aze = O=C(O)[C@@H]1CCN1

Columns and labels:
neurotensin receptors = neurotensin receptors (Homo sapiens, UniProt P30989); assay: Competitive binding assay on frozen tissue sections of receptor-positive human tumors vs radioiodinated native neurotensin; conditions: Table 3
From the text: Frozen tissue sections from receptor-positive human tumors were used in a competitive binding assay.

[1] = In vitro serum stability assay (HPLC) of In-111 labeled peptide; assay type: in vitro ADME, human; conditions: human serum, 37EC, 4 hours
Method: (§1) All reagents were purchased from Sigma unless otherwise noted. The peptide and ^111InCl3 in 0.05 N HCl were incubated in a sodium acetate/ascorbic acid buffer for 30 minutes at room temperature. The reaction was diluted with 5% ethanol/95% PBS before using in subsequent in vitro assays.
(§2) Human serum was purchased from Sigma (H 1388). The labeled peptide was incubated in either human serum or rat urine at 37EC for the specified amount of time. An aliquot was filtered through a 0.45 μm syringe filter prior to HPLC injection.

[2] = In vitro urine stability assay (HPLC) of In-111 labeled peptide; assay type: in vitro ADME; conditions: rat urine, 37EC, 4 hours
Method: as §1, §2

neurotensin receptors, sequence (P30989 whole entry): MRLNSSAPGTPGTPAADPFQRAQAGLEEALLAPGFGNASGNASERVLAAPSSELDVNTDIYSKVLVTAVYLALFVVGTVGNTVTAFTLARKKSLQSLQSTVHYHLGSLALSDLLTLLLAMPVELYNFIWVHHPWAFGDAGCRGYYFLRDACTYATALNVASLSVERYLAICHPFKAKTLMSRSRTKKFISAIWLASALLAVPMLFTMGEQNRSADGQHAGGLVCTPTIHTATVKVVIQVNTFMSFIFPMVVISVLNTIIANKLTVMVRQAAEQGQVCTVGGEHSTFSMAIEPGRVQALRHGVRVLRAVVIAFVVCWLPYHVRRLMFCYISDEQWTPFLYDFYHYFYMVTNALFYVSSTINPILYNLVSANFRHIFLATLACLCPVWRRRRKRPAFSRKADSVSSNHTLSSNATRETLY

| Compound | Kd (neurotensin receptors) | % of peptide at 4 hours after incubation at 37EC, Serum [1] | % of peptide at 4 hours after incubation at 37EC, Urine [2] |
| --- | --- | --- | --- |
| CC(C)C[C@H](NC(=O)[C@@H](NC(=O)[C@H](Cc1ccc(O)cc1)NC(=O)[C@@H]1CCCN1C(=O)[C@H](CCCNC(=N)N)NC(=O)C(NC(=O)[C@@H]1CCCN1C(=O)[C@H](CCCCN)NC(=O)[C@H](CC(N)=O)NC(=O)[C@H](CCC(=O)O)NC(=O)[C@@H](Cc1ccc(O)cc1)NC(=O)CN(CCN(CCN(CC(=O)O)CC(=O)O)CC(=O)O)CC(=O)O)C1CCN(C(=N)N)CC1)C(C)(C)C)C(=O)O (stereo partly drawn) [Compound XIII, DTPA-DTyr-Glu-Asn-Lys-Pro-Gly(PipAm)-Arg-Pro-Tyr-tBuGly-Leu-OH] ({DTPA}-[dY]ENKP[ξGly(4-Pip(1-amidino))]RPY[Tle]L-OH) | 4.5 nM | 94.9% | 86.8% |
| CC(C)(C)[C@H](NC(=O)[C@H](Cc1ccc(O)cc1)NC(=O)[C@@H]1CCCN1C(=O)[C@H](CCCNC(=N)N)NC(=O)C(NC(=O)[C@@H]1CCCN1C(=O)[C@H](CCCCN)NC(=O)[C@H](CC(N)=O)NC(=O)[C@H](CCC(=O)O)NC(=O)[C@@H](Cc1ccc(O)cc1)NC(=O)CN(CCN(CCN(CC(=O)O)CC(=O)O)CC(=O)O)CC(=O)O)C1CCN(C(=N)N)CC1)C(=O)N[C@@H](CC1CCCCC1)C(=O)O (stereo partly drawn) [Compound XIV, DTPA-DTyr-Glu-Asn-Lys-Pro-Gly(PipAm)-Arg-Pro-Tyr-tBuGly-Cha-OH] ({DTPA}-[dY]ENKP[ξGly(4-Pip(1-amidino))]RPY[Tle][Cha]-OH) | 4.5 nM | 93.9% | 81.8% |
| CC(C)(C)C[C@H](NC(=O)[C@@H](NC(=O)[C@H](Cc1ccc(O)cc1)NC(=O)[C@@H]1CCCN1C(=O)[C@H](CCCNC(=N)N)NC(=O)C(NC(=O)[C@@H]1CCCN1C(=O)[C@H](CCCCN)NC(=O)[C@H](CC(N)=O)NC(=O)[C@H](CCC(=O)O)NC(=O)[C@@H](Cc1ccc(O)cc1)NC(=O)CN(CCN(CCN(CC(=O)O)CC(=O)O)CC(=O)O)CC(=O)O)C1CCN(C(=N)N)CC1)C(C)(C)C)C(=O)O (stereo partly drawn) [Compound XV, DTPA-DTyr-Glu-Asn-Lys-Pro-Gly(PipAm)-Arg-Pro-Tyr-tBuGly-tBuAla-OH] ({DTPA}-[dY]ENKP[ξGly(4-Pip(1-amidino))]RPY[Tle][tBuAla]-OH) | 3.5 nM | 98.9% | 89.8% |
| CC(C)C[C@H](NC(=O)[C@@H](NC(=O)[C@H](Cc1ccc(O)cc1)NC(=O)[C@@H]1CCCN1C(=O)[C@H](CCCNC(=N)N)NC(=O)C(NC(=O)[C@@H]1CCN1C(=O)[C@@H](CCCCN)NC(=O)CN(CCN(CCN(CC(=O)O)CC(=O)O)CC(=O)O)CC(=O)O)C1CCN(C(=N)N)CC1)C(C)(C)C)C(=O)O (stereo partly drawn) [DTPA-DLys-AzeCA-Gly(PipAm)-Arg-Pro-Tyr-tBuGly-Leu-OH] ({DTPA}-[dK][Aze][ξGly(4-Pip(1-amidino))]RPY[Tle]L-OH) | 24 nM | 79.5% | 49.8% |
| CC[C@H](C)[C@H](NC(=O)[C@H](Cc1ccc(O)cc1)NC(=O)[C@@H]1CCCN1C(=O)C(Cc1ccc(NC(=N)N)cc1)NC(=O)C(Cc1ccc(NC(=N)N)cc1)NC(=O)[C@@H]1CCCN1C(=O)[C@@H](CCCCN)NC(=O)CN(CCN(CCN(CC(=O)O)CC(=O)O)CC(=O)O)CC(=O)O)C(=O)N[C@@H](CC(C)C)C(=O)O (stereo partly drawn) [DTPA-DLys-Pro-(4-Gu)Phe-(4-Gu)Phe-Pro-Tyr-Ile-Leu-OH] ({DTPA}-[dK]P[ξPhe(4-guanidino)][ξPhe(4-guanidino)]PYIL-OH) | 175 nM | 25.2% | 2.3% |
| CC(C)C[C@H](NC(=O)[C@@H](NC(=O)[C@H](Cc1ccc(O)cc1)NC(=O)[C@@H]1CC(=O)CN1C(=O)[C@H](CCCNC(=N)N)NC(=O)C(NC(=O)[C@@H]1CCCN1C(=O)[C@@H](CCCCN)NC(=O)CN(CCN(CCN(CC(=O)O)CC(=O)O)CC(=O)O)CC(=O)O)C1CCN(C(=N)N)CC1)C(C)(C)C)C(=O)O (stereo partly drawn) [DTPA-DLys-Pro-Gly(PipAm)-Arg-(4-oxo)Pro-Tyr-tBuGly-Leu-OH] ({DTPA}-[dK]P[ξGly(4-Pip(1-amidino))]R[Pro(4-oxo)]Y[Tle]L-OH) | > 1000 nM | 78.5% | 79.7% |
| CC(C)C[C@H](NC(=O)[C@@H](NC(=O)[C@H](Cc1ccc(O)cc1)NC(=O)[C@@H]1CCN1C(=O)[C@H](CCCNC(=N)N)NC(=O)C(NC(=O)[C@@H]1CCCN1C(=O)[C@@H](CCCCN)NC(=O)CN(CCN(CCN(CC(=O)O)CC(=O)O)CC(=O)O)CC(=O)O)C1CCN(C(=N)N)CC1)C(C)(C)C)C(=O)O (stereo partly drawn) [DTPA-DLys-Pro-Gly(PipAm)-Arg-AzeCA-Tyr-tBuGly-Leu-OH] ({DTPA}-[dK]P[ξGly(4-Pip(1-amidino))]R[Aze]Y[Tle]L-OH) | 740 nM | 79.2% | 36.5% |
| CC(C)C[C@H](NC(=O)[C@@H](NC(=O)[C@H](Cc1ccc(O)cc1)NC(=O)[C@H]1CCCCN1C(=O)[C@H](CCCNC(=N)N)NC(=O)C(NC(=O)[C@@H]1CCCN1C(=O)[C@@H](CCCCN)NC(=O)CN(CCN(CCN(CC(=O)O)CC(=O)O)CC(=O)O)CC(=O)O)C1CCN(C(=N)N)CC1)C(C)(C)C)C(=O)O (stereo partly drawn) [DTPA-DLys-Pro-Gly(PipAm)-Arg-DPipCA-Tyr-tBuGly-Leu-OH] ({DTPA}-[dK]P[ξGly(4-Pip(1-amidino))]R[dPip]Y[Tle]L-OH) | > 1000 nM | 96.2% | 91.9% |
| CC(C)C[C@H](NC(=O)[C@@H](NC(=O)[C@H](Cc1ccc(O)cc1)NC(=O)[C@@H]1CCCCN1C(=O)[C@H](CCCNC(=N)N)NC(=O)C(NC(=O)[C@@H]1CCCN1C(=O)[C@@H](CCCCN)NC(=O)CN(CCN(CCN(CC(=O)O)CC(=O)O)CC(=O)O)CC(=O)O)C1CCN(C(=N)N)CC1)C(C)(C)C)C(=O)O (stereo partly drawn) [DTPA-DLys-Pro-Gly(PipAm)-Arg-PipCA-Tyr-tBuGly-Leu-OH] ({DTPA}-[dK]P[ξGly(4-Pip(1-amidino))]R[Pip]Y[Tle]L-OH) | > 1000 nM | 69.5% | 45.8% |
| Cc1cc(O)cc(C)c1C[C@H](NC(=O)[C@@H]1CCCN1C(=O)[C@H](CCCNC(=N)N)NC(=O)C(NC(=O)[C@@H]1CCCN1C(=O)[C@@H](CCCCN)NC(=O)CN(CCN(CCN(CC(=O)O)CC(=O)O)CC(=O)O)CC(=O)O)C1CCN(C(=N)N)CC1)C(=O)N[C@H](C(=O)N[C@@H](CC(C)C)C(=O)O)C(C)(C)C (stereo partly drawn) [DTPA-DLys-Pro-Gly(PipAm)-Arg-Pro-(2,6-diMe)Tyr-tBuGly-Leu-OH] ({DTPA}-[dK]P[ξGly(4-Pip(1-amidino))]RP[Dmt][Tle]L-OH) | 45 nM | 96.6% | 99.2% |
| CC(C)C[C@H](NC(=O)C1(NC(=O)[C@H](Cc2ccc(O)cc2)NC(=O)[C@@H]2CCCN2C(=O)[C@H](CCCNC(=N)N)NC(=O)C(NC(=O)[C@@H]2CCCN2C(=O)[C@@H](CCCCN)NC(=O)CN(CCN(CCN(CC(=O)O)CC(=O)O)CC(=O)O)CC(=O)O)C2CCN(C(=N)N)CC2)CCCCC1)C(=O)O (stereo partly drawn) [DTPA-DLys-Pro-Gly(PipAm)-Arg-Pro-Tyr-Achc-Leu-OH] ({DTPA}-[dK]P[ξGly(4-Pip(1-amidino))]RPY[Ac6c]L-OH) | > 10000 nM | 89.9% | 84.9% |
| CC(C)(C)[C@H](NC(=O)[C@H](Cc1ccc(O)cc1)NC(=O)[C@@H]1CCCN1C(=O)[C@H](CCCNC(=N)N)NC(=O)C(NC(=O)[C@@H]1CCCN1C(=O)[C@@H](CCCCN)NC(=O)CN(CCN(CCN(CC(=O)O)CC(=O)O)CC(=O)O)CC(=O)O)C1CCN(C(=N)N)CC1)C(=O)N[C@@H](CC1CCCCC1)C(=O)O (stereo partly drawn) [DTPA-DLys-Pro-Gly(PipAm)-Arg-Pro-Tyr-tBuGly-Cha-OH] ({DTPA}-[dK]P[ξGly(4-Pip(1-amidino))]RPY[Tle][Cha]-OH) | 12 nM | 81.2% | 65.9% |
| CC(C)(C)[C@H](NC(=O)[C@H](Cc1ccc(O)cc1)NC(=O)[C@@H]1CCCN1C(=O)[C@H](CCCNC(=N)N)NC(=O)C(NC(=O)[C@@H]1CCCN1C(=O)[C@@H](CCCCN)NC(=O)CN(CCN(CCN(CC(=O)O)CC(=O)O)CC(=O)O)CC(=O)O)C1CCN(C(=N)N)CC1)C(=O)N[C@@H](CC1CC1)C(=O)O (stereo partly drawn) [DTPA-DLys-Pro-Gly(PipAm)-Arg-Pro-Tyr-tBuGly-Cpa-OH] ({DTPA}-[dK]P[ξGly(4-Pip(1-amidino))]RPY[Tle][Ala(cPr)]-OH) | 290 nM | 88.1% | 73.6% |
| CC(C)(C)C[C@H](NC(=O)[C@@H](NC(=O)[C@H](Cc1ccc(O)cc1)NC(=O)[C@@H]1CCCN1C(=O)[C@H](CCCNC(=N)N)NC(=O)C(NC(=O)[C@@H]1CCCN1C(=O)[C@@H](CCCCN)NC(=O)CN(CCN(CCN(CC(=O)O)CC(=O)O)CC(=O)O)CC(=O)O)C1CCN(C(=N)N)CC1)C(C)(C)C)C(=O)O (stereo partly drawn) [DTPA-DLys-Pro-Gly(PipAm)-Arg-Pro-Tyr-tBuGly-tBuAla-OH] ({DTPA}-[dK]P[ξGly(4-Pip(1-amidino))]RPY[Tle][tBuAla]-OH) | 7.3 nM | 89.2% | 72.3% |
